Data from patent US6762170B1, “2-(purin-9-yl)-tetrahydrofuran-3,4-diol derivatives” (SmithKlineBeecham Corporation, priority 1998, dated 2004).
Counter-ions that a name gives are not always drawn.

How the values were obtained:
Type in all cases: cell-based
Adenosine 2a receptor = molecular target: T1, Adenosine 2a receptor (Homo sapiens, UniProt P29274); assay: Agonist activity against adenosine 2a receptor subtype (CHO cells, cAMP response element/SPAP reporter); conditions: EC50 ratio to NECA; transfected CHO cells, basal cAMP reflected by SPAP
T1 construct: expressed in transfected cells; host or cells: Chinese hamster ovary (CHO) cells, co-transfected with a CRE-SPAP reporter
Description: (§1) (1) Agonist Activity Against Adenosine 2a, Adenosine 1 and Adenosine 3 Receptor Subtypes.
(§2) Agonist selectivity of compounds against other human adenosine receptors is determined using Chinese hamster ovary (CHO) cells transfected with the gene for the relevant human adenosine receptor following a method based on that of Castanon and Spevak, 1994. The CHO cells are also transfected with cyclic AMP response elements promoting the gene for secreted placental alkaline phosphatase (SPAP) (Wood, 1995). The effect of test compounds may be determined by their effects on basal levels of cAMP (A2a) or on forskolin-enhanced cAMP (A1 and A3) as reflected by changes in levels of SPAP. EC50 values for compounds may then be determined as a ratio to that of the non-selective agonist N-ethyl carboxamide adenosine (NECA).
(§3) Values given in the Table are EC50 values as a ratio of that of NECA.

Adenosine 3 receptor = molecular target: T2, Adenosine 3 receptor (Homo sapiens, UniProt P0DMS8); assay: Agonist activity against adenosine 3 receptor subtype (CHO cells, forskolin-enhanced cAMP, SPAP reporter); conditions: EC50 ratio to NECA; transfected CHO cells, forskolin-enhanced cAMP reflected by SPAP
T2 construct: expressed in transfected cells; host or cells: Chinese hamster ovary (CHO) cells, co-transfected with a CRE-SPAP reporter
T2 sequence (P0DMS8 1-318): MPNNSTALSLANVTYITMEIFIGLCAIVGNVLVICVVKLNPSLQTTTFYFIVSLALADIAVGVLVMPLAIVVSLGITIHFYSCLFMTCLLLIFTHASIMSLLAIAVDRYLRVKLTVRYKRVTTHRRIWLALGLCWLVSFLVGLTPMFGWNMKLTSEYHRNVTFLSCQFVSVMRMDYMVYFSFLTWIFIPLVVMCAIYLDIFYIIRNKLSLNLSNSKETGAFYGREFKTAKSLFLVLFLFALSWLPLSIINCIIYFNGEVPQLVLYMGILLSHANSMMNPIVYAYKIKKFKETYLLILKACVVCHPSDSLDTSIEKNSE
Description: as §1, §2, §3

Adenosine 1 receptor = molecular target: T3, Adenosine 1 receptor (Homo sapiens, UniProt P30542); assay: Agonist activity against adenosine 1 receptor subtype (CHO cells, forskolin-enhanced cAMP, SPAP reporter); conditions: EC50 ratio to NECA; transfected CHO cells, forskolin-enhanced cAMP reflected by SPAP
T3 construct: expressed in transfected cells; host or cells: Chinese hamster ovary (CHO) cells, co-transfected with a CRE-SPAP reporter
T3 sequence (P30542 1-326): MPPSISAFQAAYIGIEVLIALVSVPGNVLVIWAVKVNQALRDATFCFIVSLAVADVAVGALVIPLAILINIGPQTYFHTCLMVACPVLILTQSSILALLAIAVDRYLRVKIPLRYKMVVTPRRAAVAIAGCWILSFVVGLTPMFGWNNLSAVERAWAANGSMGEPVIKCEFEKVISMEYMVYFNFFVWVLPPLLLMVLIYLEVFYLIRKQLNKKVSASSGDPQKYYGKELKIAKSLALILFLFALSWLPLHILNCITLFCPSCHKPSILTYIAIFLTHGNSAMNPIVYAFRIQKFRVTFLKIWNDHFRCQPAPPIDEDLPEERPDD
Description: as §1, §2, §3

T1 sequence (P29274 whole entry): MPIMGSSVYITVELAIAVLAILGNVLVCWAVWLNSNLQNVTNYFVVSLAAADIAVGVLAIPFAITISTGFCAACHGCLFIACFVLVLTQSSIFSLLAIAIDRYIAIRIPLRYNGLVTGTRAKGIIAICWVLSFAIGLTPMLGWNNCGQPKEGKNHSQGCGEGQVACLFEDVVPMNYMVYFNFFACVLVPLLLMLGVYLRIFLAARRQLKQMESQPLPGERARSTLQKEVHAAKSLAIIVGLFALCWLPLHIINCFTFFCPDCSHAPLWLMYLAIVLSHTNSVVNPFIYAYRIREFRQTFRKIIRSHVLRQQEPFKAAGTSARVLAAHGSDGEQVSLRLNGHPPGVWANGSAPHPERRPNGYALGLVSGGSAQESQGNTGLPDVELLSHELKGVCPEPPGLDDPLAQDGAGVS

Row | A2a (EC50 values as a ratio of that of NECA) (Adenosine 2a receptor) | A3 (EC50 values as a ratio of that of NECA) (Adenosine 3 receptor) | A1 (EC50 values as a ratio of that of NECA) (Adenosine 1 receptor) | SMILES
1 | 0.35 | >1004 | 442 | CCc1cc([C@H]2O[C@@H](n3cnc4c(NCC(c5ccccc5)c5ccccc5)nc(NCCNc5ccccn5)nc43)[C@H](O)[C@@H]2O)on1.O=CO.O=CO [Example 16, (2R,3R,4S,5S)-2-{6-(2,2-Diphenyl-ethylamino)-2-[2-(pyridin-2-ylamino)-ethylamino]-purin-9-yl}-5-(3-ethyl-isoxazol-5-yl)-tetrahydro-furan-3,4-diol diformate]
2 | 0.34 | >298 | 1172 | CCc1cc(C2OC(n3cnc4c(NCC(c5ccccc5)c5ccccc5)nc(NC(CO)Cc5ccccc5)nc43)C(O)C2O)on1 [Example 17, (2R,3R,4S,5S)-2-[6-(2,2-Diphenyl-ethylamino)-2-(1S-hydroxymethyl-2-phenyl-ethylamino)-purin-9-yl]-5-(3-ethyl-isoxazol-5-yl)-tetrahydro-furan-3,4-diol formate]
3 | 0.72 | >460 | 2580 | CCc1cc(C2OC(n3cnc4c(N)nc(NCCc5ccc(S(N)(=O)=O)cc5)nc43)C(O)C2O)on1 (stereo not drawn) [Example 18, 4-(2-{6-Amino-9-[5S-(3-ethyl-isoxazol-5-yl)-3R,4S-dihydroxy-tetrahydro-furan-2R-yl]-9H-purin-2-ylamino}-benzenesulfonamide formate]
4 | 2.04 | >267 | 310.9 | CCc1cc(C2OC(n3cnc4c(NCc5cccc(I)c5)nc(NCCc5cn(C)cn5)nc43)C(O)C2O)on1.O=CO.O=CO [Example 20, (2S,3S,4R,5R)-2-(3-Ethyl-isoxazol-5-yl)-5-{6-(3-iodo-benzylamino)-2-[2-(1-methyl-1H-imidazol-4-yl)-ethylamino]-purin-9-yl}-tetrahydro-furan-3,4-diol diformate]
5 | 1.55 | >267 | 1624.29 | CCc1cc(C2OC(n3cnc4c(NCCC5CCCCC5)nc(NCCc5cn(C)cn5)nc43)C(O)C2O)on1.O=CO.O=CO [Example 21, (2R,3R,4S,5S)-2-{6-(2-Cyclohexyl-ethylamino)-2-[2-(1-methyl-1H-imidazol-4-yl)-ethylamino]-purin-9-yl}5-(3-ethyl-isoxazol-5-yl)-tetrahydro-furan-3,4-diol diformate]
6 | 9.17 | >254 | 8026.2 | CCc1cc(C2OC(n3cnc4c(NCCC5CCCCC5)nc(NC(CO)Cc5ccccc5)nc43)C(O)C2O)on1 [Example 22, (2R,3R,4S,5S)-2-[6-(2-Cyclohexyl-ethylamino)-2-(1 S-hydroxy-methyl-2-phenyl-ethylamino)-purin-9-yl]-5-(3-ethyl-isoxazol-5-yl)-tetrahydro-furan-3,4-diol formate]
7 | 13.4 | >282 | >=3263 | CCc1cc(C2OC(n3cnc4c(NCC(c5ccccc5)c5ccccc5)nc(NCCNC(=N)N)nc43)C(O)C2O)on1 (stereo not drawn) [Example 23, N-2-{6-(2,2-Diphenyl-ethylamino)-9-[5S-(3-ethyl-isoxazol-5-yl)-3R,4S-dihydroxy-tetrahydro-furan-2R-yl]-9H-purin-2-ylamino}-ethyl)-guanidine diformate]
8 | 0.23 | >248 | 573.6 | CCc1cc(C2OC(n3cnc4c(NCC(c5ccccc5)c5ccccc5)nc(NC5CCC(NC(C)=O)CC5)nc43)C(O)C2O)on1 (stereo not drawn) [Example 24, N-(4-{6-(2,2-Diphenyl-ethylamino)-9-[5S-(3-ethyl-isoxazol-5-yl)-3R,4S-dihydroxy-tetrahydro-furan-2R-yl]-9H-purin-2-ylamino}-cyclohexyl)-acetamide formate]
